This note sets out measurements from BindingDB's records for patent US20230382911 (Hoffmann-La Roche, 2023).

Each structure is given as a SMILES string.

This test deals with S-adenosylmethionine synthase isoform type-2 (Homo sapiens, UniProt P31153). Briefly: Measurement of Mat2A inhibition is performed in 384 well format absorbance-based assay. As for the experimental part: Recombinant human Mat2a (12.5 nM) and serial diluted compounds in DMSO (range of concentrations from 10 μM to […]) or controls (DMSO) are incubated for 15 minutes at room temperature (RT) in assay buffer containing 50 mM HEPES pH 7.5, 50 mM KCl, 50 mM MgCl2, 0.01% Tween 20 and 10 mM DTT. The reaction is initiated by the addition of the combined substrates ATP and Methionine, each at a final concentration of 100 μM. Final assay condition are 12.5 nM Mat2A, 100 μM ATP and Methionine Substrates and 2% DMSO. After 120 minutes of incubation at RT, the reaction is stopped by the addition of Biomol Green. The absorbance signal is measured at λ=635 nm with a multiplate reader (BMG Pherastar reader or equivalent) after 30 min of equilibration at RT.
S-adenosylmethionine synthase isoform type-2, sequence (P31153 whole entry, canonical isoform): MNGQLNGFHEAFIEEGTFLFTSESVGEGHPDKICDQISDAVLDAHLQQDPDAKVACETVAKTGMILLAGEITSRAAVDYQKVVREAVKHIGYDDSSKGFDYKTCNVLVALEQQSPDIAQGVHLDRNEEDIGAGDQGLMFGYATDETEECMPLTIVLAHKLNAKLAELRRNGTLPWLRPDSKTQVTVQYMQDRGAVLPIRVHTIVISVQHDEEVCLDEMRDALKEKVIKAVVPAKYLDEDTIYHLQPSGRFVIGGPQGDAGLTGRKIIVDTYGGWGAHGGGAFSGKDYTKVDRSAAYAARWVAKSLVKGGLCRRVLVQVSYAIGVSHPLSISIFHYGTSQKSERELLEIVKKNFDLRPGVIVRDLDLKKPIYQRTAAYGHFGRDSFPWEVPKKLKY
As for `COc1ccccc1C(=O)n1nc(N)c2cc(F)c(N3CCCC3)nc21` [US20230382911, Example 11], the concentration for half-maximal inhibition (IC50) was found to be 66 nM. In turn, `Cc1ccccc1C(=O)n1nc(N)c2ccc([C@H]3[C@H](C)[C@@H]3C)nc21` [US20230382911, Example 43] displayed an IC50 of 35 nM. In turn, `COc1ccccc1C(=O)n1nc(N)c2ccc([C@H]3[C@H](C)[C@@H]3C)nc21` [US20230382911, Example 44] returned an IC50 of 13 nM.
